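Test compounds were applied to cells in 96-well plates for 48 hours at 5 doses. The concentration for 50% growth inhibition is given as GI50. TGI marks complete inhibition of growth.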
Key:
Test in all cases: NCI-60 cell line screen, 48 h
SK-MEL-2 melanoma = test system: SK-MEL-2 melanoma
K-562 leukemia = test system: K-562 leukemia
HT29 colon = test system: HT29 colon
NCI-H23 lung = test system: NCI-H23 lung
EKVX NSCLC = test system: EKVX NSCLC
RXF 393 renal = test system: RXF 393 renal
SF-268 CNS = test system: SF-268 CNS
SN12C renal = test system: SN12C renal
KM12 colon = test system: KM12 colon
LOX IMVI melanoma = test system: LOX IMVI melanoma
HOP-62 NSCLC = test system: HOP-62 NSCLC
SW-620 colon = test system: SW-620 colon
SK-MEL-28 melanoma = test system: SK-MEL-28 melanoma
M14 melanoma = test system: M14 melanoma
786-0 renal = test system: 786-0 renal
HCT-15 colon = test system: HCT-15 colon
COLO 205 colon = test system: COLO 205 colon
HS 578T breast = test system: HS 578T breast
A498 renal = test system: A498 renal
MDA-MB-435 = test system: MDA-MB-435
OVCAR-8 ovarian = test system: OVCAR-8 ovarian
SNB-75 CNS = test system: SNB-75 CNS
SNB-19 CNS = test system: SNB-19 CNS
A549 NSCLC = test system: A549 NSCLC
UO-31 renal = test system: UO-31 renal
SF-539 CNS = test system: SF-539 CNS
NCI-H522 lung = test system: NCI-H522 lung
BT-549 breast = test system: BT-549 breast
OVCAR-3 ovarian = test system: OVCAR-3 ovarian

`CNc1nc2ccccc2n2c(-c3ccc(O)c(O)c3)cnc12` was tested, and the GI50 (SK-MEL-2 melanoma) was under 10 nM, the TGI (SK-MEL-2 melanoma) was 5.75 µM and the GI50 (K-562 leukemia) was under 10 nM. For the same compound, the TGI (K-562 leukemia) was over 100 µM, the GI50 (HT29 colon) was 36.7 nM and the TGI (HT29 colon) was 1640 nM. It also gave a GI50 (NCI-H23 lung) of under 10 nM, a TGI (NCI-H23 lung) of 9.56 µM and a GI50 (EKVX NSCLC) of under 20.7 nM. It also gave a TGI (EKVX NSCLC) of 32.7 µM, a GI50 (RXF 393 renal) of under 10 nM and a TGI (RXF 393 renal) of 14.8 µM. For the same compound, the GI50 (SF-268 CNS) was under 22.6 nM, the TGI (SF-268 CNS) was 54.7 µM and the GI50 (SN12C renal) was under 10 nM. It also gave a TGI (SN12C renal) of 10.7 µM, a GI50 (KM12 colon) of under 10 nM and a TGI (KM12 colon) of 26.3 µM. It also gave a GI50 (LOX IMVI melanoma) of under 10 nM, a TGI (LOX IMVI melanoma) of 13.7 µM and a GI50 (HOP-62 NSCLC) of under 10 nM. For the same compound, the TGI (HOP-62 NSCLC) was 26.1 µM, the GI50 (SW-620 colon) was under 10 nM and the TGI (SW-620 colon) was over 69.9 µM. For the same compound, the GI50 (SK-MEL-28 melanoma) was under 10 nM, the TGI (SK-MEL-28 melanoma) was 23.3 µM and the GI50 (M14 melanoma) was under 10 nM. For the same compound, the TGI (M14 melanoma) was 2830 nM, the GI50 (786-0 renal) was 113 nM and the TGI (786-0 renal) was 21.5 µM. The GI50 (HCT-15 colon) was under 10 nM, the TGI (HCT-15 colon) was 31.3 µM and the GI50 (COLO 205 colon) was 128 nM. The TGI (COLO 205 colon) was 1560 nM, the GI50 (HS 578T breast) was under 10 nM and the TGI (HS 578T breast) was 8.13 µM. It also gave a GI50 (A498 renal) of 20.7 µM, a TGI (A498 renal) of 61.6 µM and a GI50 (MDA-MB-435) of under 10 nM. It also gave a TGI (MDA-MB-435) of 1290 nM, a GI50 (OVCAR-8 ovarian) of under 10 nM and a TGI (OVCAR-8 ovarian) of 507 nM. The GI50 (SNB-75 CNS) was under 10 nM, the TGI (SNB-75 CNS) was 14.8 µM and the GI50 (SNB-19 CNS) was under 10 nM. For the same compound, the TGI (SNB-19 CNS) was 31.1 µM, the GI50 (A549 NSCLC) was under 10 nM and the TGI (A549 NSCLC) was over 35 µM. The GI50 (UO-31 renal) was under 10 nM, the TGI (UO-31 renal) was 15.9 µM and the GI50 (SF-539 CNS) was under 10 nM. The TGI (SF-539 CNS) was under 10 nM, the GI50 (NCI-H522 lung) was under 10 nM and the TGI (NCI-H522 lung) was under 10 nM. The GI50 (BT-549 breast) was under 10 nM, the TGI (BT-549 breast) was 1160 nM and the GI50 (OVCAR-3 ovarian) was under 10 nM.

Source: PubChem BioAssay (NCI)
